Reference: patent US20250353859A1, “COMPOUNDS AS CCR6 INHIBITORS” (Hoffmann-La Roche Inc., priority 2023, published 2025)

Legend:
Human CD4+ T cells = test: CD4+ T cells chemotaxis assay towards CCL20; format: cell-based; conditions: CD4+ T cell, 3 h
Description: Human CD4+ T cells were isolated from buffy coats of healthy donors using aCD4+ T Cell Isolation Kit(Miltenyi Biotec 130-096-533). Isolated T cells were stimulated overnight with anti-CD3 and anti-CD28 antibodies (Biolegend 300314/302934) in growth medium (RPMI1640, 10% heat-inactivated FBS, 1× pen/strep (Gibco 15140)). For the chemotaxis assay, Corning Transwell plates were used with a pore size of 5 m (Corning 3388). T cells were counted and diluted to 6*10^6 cells/ml in chemotaxis medium (RPMI1640, 1% BSA, pen/strep). Compounds were four-fold serially diluted in DMSO. Further dilutions were made in chemotaxis medium. Cells were incubated with test compounds for 30 min at 37° C. prior to initiation of the assay (3*10^6 cells/ml). Final DMSO concentration in the assay was 0.2%. Wells of the Transwell plates were filled with 200 μl chemotaxis medium containing 150 ng/ml CCL20 (R&D systems 360-MP). 50 μl of the cell/compound suspension was added to the inserts of the Transwell plates (150,000 cells/insert). The Transwell plates were placed in an incubator at 37° C., 5% CO2 for 3 h. After 3 h, the number of migrated cells was quantified using CellTiter Glo (Promega). Percentage inhibition values were calculated based on the low and high signal obtained with 0.2% DMSO in chemotaxis medium without and with CCL20, respectively. The relative Log IC50 was determined with GraphPad Prism 9 using a four-parameter dose-response model.

human CCR6 = target: T1, human CCR6 (Homo sapiens, UniProt P51684); test: Human CCR6-CRE reporter assay; format: cell-based; design: The second construct contained the open reading frame of human CCR6 in the pUNO1 backbone; host or cells: 293FT cells (transient transfection with TransIT-293); conditions: 293FT cells transfected with human CCR6 and CRE-luciferase; Forskolin + CCL20, 5 h; relative Log IC50; read-out: CCR6-CRE reporter (converted)
T1 sequence (P51684 1-374): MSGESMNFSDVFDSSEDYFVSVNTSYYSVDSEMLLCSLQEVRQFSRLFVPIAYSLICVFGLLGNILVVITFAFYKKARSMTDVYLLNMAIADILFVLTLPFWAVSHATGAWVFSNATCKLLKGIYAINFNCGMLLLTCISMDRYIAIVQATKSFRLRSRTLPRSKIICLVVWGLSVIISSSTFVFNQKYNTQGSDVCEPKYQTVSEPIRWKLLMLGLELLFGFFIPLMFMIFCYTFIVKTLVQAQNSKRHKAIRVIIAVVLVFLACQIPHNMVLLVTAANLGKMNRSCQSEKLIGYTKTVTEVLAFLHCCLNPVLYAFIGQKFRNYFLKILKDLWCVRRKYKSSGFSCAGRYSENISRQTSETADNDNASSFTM
Method in brief: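 293FT cells transiently co-transfected with human CCR6 and a CRE-luc2P reporter, used 48 h later. Compounds in medium with 6 μM forskolin and 6 nM CCL20, 0.1% DMSO final, 5 h at 37° C. Luminescence read; relative log IC50 from a four-parameter fit.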

For `O=c1[nH]nc2ccc(-c3ccc(S(=O)(=O)N4CCC(Nc5ccc(SC(F)(F)F)cn5)CC4)cc3)cn12` [Example 74, 6-(4-{[4-({5-[(trifluoromethyl)sulfanyl]pyridin-2-yl}amino)piperidin-1-yl]sulfonyl}phenyl)-2H,3H-[1,2,4]triazolo[4,3-a]pyridin-3-one], the IC50 (Human CD4+ T cells) was 12.6 nM and the IC50 (human CCR6) was 79.4 nM.
